Assay results as given in patent US20140148400A1, “CARBONIC ANHYDRASE INHIBITORS WITH […] ACTIVITY” (METASIGNAL THERAPEUTICS INC., priority 2010, published 2014).
Like-named read-outs stand apart in the source and are kept apart here. Values belong to the compound of their own block, whether it stands above or below them.

What was measured:
hCA II = hCA II (Homo sapiens, UniProt P00918); test: In vitro CA inhibition assay, hCA II; format: biochemical
4T1 mammary tumor cells = details: 2×10^5 4T1 cells i.v.; daily i.p. injection for 6 days from 24 hours post inoculation; imaged 24 hours after final dose
hCA I = hCA I (Homo sapiens, UniProt P00915); test: In vitro CA inhibition assay, hCA I; format: biochemical; details: unit from table title
human CA isoforms = details: background statement; cited from earlier work
hCA IX = hCA IX (Homo sapiens, UniProt Q16790); test: In vitro CA inhibition assay, hCA IX; format: biochemical; details: cells with nM printed beside the value
4T1 primary tumors = test: Growth of orthotopically implanted 4T1 primary tumors; format: in vivo, female BALB/c mice; details: 1×10^6 cells/mouse orthotopic; tumors established 14 days; daily i.p. for 14 days
[1] = unit from table title, read-out: hCA II inhibition data in KI

Sequence of hCA I (P00915 whole entry, canonical isoform): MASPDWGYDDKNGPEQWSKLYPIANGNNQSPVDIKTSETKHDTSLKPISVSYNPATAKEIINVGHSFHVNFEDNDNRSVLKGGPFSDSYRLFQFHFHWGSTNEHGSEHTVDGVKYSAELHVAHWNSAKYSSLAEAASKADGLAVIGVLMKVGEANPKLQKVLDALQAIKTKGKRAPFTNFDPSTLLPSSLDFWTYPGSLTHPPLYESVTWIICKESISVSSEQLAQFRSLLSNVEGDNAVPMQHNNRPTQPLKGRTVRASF

SMILES: O=c1ccc2cc(OCc3cn(-c4ccccc4Cl)nn3)ccc2o1 [MST-225, 6-((1-(2-chlorophenyl)-1H-1,2,3-triazol-4-yl)methoxy)-2H-chromen-2-one]
melting point: 164 to 166 °C

SMILES: Oc1ccc2oc(=S)ccc2c1 [MST-233, 6-Hydroxy-2H-chromene-2-thione]
Ki (hCA II; [1]): > 200 µM

SMILES: Cc1cc(=O)oc2cc(O[C@H]3O[C@H](CO)[C@@H](O)[C@H](O)[C@@H]3O)ccc12 [MST-204, 4-methylumbellifer-7-yl-α-D-mannopyranoside]
formation of metastases by 4T1 mammary tumor cells (tumor-derived bioluminescence) (4T1 mammary tumor cells): reduced the formation of metastases

SMILES: CC(C)(C)[Si](C)(C)Oc1ccc2ccc(=O)oc2c1 [MST-231, 7-(tert-Butyldimethylsilyloxy)-2H-chromen-2-one]
Ki (hCA II): > 200 µM

SMILES: Cc1cc(=O)oc2cc(OC3OCC(O)C(O)C3O)ccc12 [MST-201, 4-methylumbellifer-7-yl- -D-xylopyranoside]
melting point: 223 °C

SMILES: N#Cc1cc2ccc(O)cc2oc1=O [MST-247]
Ki (hCA I): 104 µM

SMILES: COc1cc2oc(=O)ccc2cc1[C@@H](O)CC(C)C [6-(1S-hydroxy-3-methylbutyl)-7-methoxy-2H-chromen-2-one]
inhibition of all investigated human CA isoforms (human CA isoforms): nonselective, potent inhibitors

SMILES: CC(C)(C)[Si](C)(C)Oc1ccc2oc(=O)ccc2c1 [MST-230, 6-(tert-Butyldimethylsilyloxy)-2H-chromen-2-one]
Ki (hCA II; [1]): > 200 µM

SMILES: O=c1ccc2ccccc2o1 [unsubstituted coumarin, coumarin]
inhibition of all investigated human CA isoforms (human CA isoforms): nonselective, potent inhibitors

SMILES: Cc1cc(=O)oc2cc(OC3OC(CO)C(O)C(O)C3O)ccc12 (single isomer, unassigned) [MST-203, 4-methylumbellifer-7-yl-1-D-galactopyranoside]
Ki (hCA IX): 93 nM
Ki (hCA I): 0.59 µM
Ki (hCA II; [1]): 77 µM

SMILES: Cc1cc(=O)oc2ccc(OCCn3c([N+](=O)[O-])cnc3C)cc12 [MST-249, 6-O-[2-(2-methyl-5-nitro-imidazol-1-yl)ethyl]-4-methylcoumarine]
melting point: 190 to 191 °C

The next lines start with results.

Ki (hCA I): 1 µM
Ki (hCA II; [1]): > 100 µM
SMILES: Cc1cc(=O)oc2cc(OC3OC(CO)C(O)C(O)C3O)ccc12 (single isomer, unassigned) [MST-202, 4-methylumbellifer-7-yl- -D-glucopyranoside]

Ki (hCA IX): 201 nM
Ki (hCA I): > 100 µM
Ki (hCA II; [1]): > 100 µM
SMILES: Cc1cc(=O)oc2cc(OC3OC(C)C(O)C(O)C3O)ccc12 [MST-205, 4-methylumbellifer-7-yl- -L-rhamnopyranoside]
growth of 4T1 primary tumors (caliper-based measurement) (4T1 primary tumors): Attenuates the Growth of 4T1 Primary Tumors
formation of metastases by 4T1 mammary tumor cells (tumor-derived bioluminescence) (4T1 mammary tumor cells): inhibits the formation of metastases

melting point: 238 to 240 °C
SMILES: Cc1cc(=O)oc2cc(OCCn3c([N+](=O)[O-])cnc3C)ccc12 [MST-248, 7-O-[2-(2-methyl-5-nitro-imidazol-1-yl)ethyl]-4-methylcoumarine]

Ki (hCA II; [1]): > 200 µM
SMILES: C=CCOc1ccc2oc(=S)ccc2c1 [MST-240, 6-(Allyloxy)-2H-chromene-2-thione]

melting point: 97 to 101 °C
SMILES: C#CCOc1ccc2ccc(=S)oc2c1 [MST-217, 7-(prop-2-ynyloxy)-2H-chromene-2-thione]
